Reference: the NIST ThermoML archive (doi:10.1016/j.jct.2012.11.032)

Assay: xn = mol fraction of the nth substance listed
Conditions: 101 kPa, Liquid; for mass density: Vibrating tube method; for speed of sound: Sing-around technique in a fixed-path interferometer

CCCCCCCC[n+]1ccn(C)c1.[Cl-] [1-methyl-3-octylimidazolium chloride] + O
Conditions	mass density, 298 K [kg/m3]	mass density, 303 K [kg/m3]	speed of sound, 303 K [m/s]	speed of sound, 308 K [m/s]
x1 = 0.000276	997.161	995.767	1511.7	1522.2
x1 = 0.000495	997.221	995.808	1513.5	1523.8
x1 = 0.000781	997.313	995.896	1515.8	1526
x1 = 0.00102	997.386	995.954	1517.8	1527.8
x1 = 0.0013	997.479	996.029	1520	1529.8
x1 = 0.001503	997.527	996.067	1521.6	1531.3
x1 = 0.001892	997.639	996.169	1524.7	1534.1
x1 = 0.002073	997.696	996.211	1526.1	1535.4
x1 = 0.002376	997.786	996.287	1528.3	1537.4
x1 = 0.00261	997.846	996.341	1530.2	1539.1
x1 = 0.002774	997.889	996.377	1531.2	1540.1
x1 = 0.003111	997.987	996.455	1533.7	–
x1 = 0.003716	998.157	996.597	1537.7	–
x1 = 0.003899	998.198	996.633	1538.8	–
x1 = 0.004079	998.254	996.675	1540	–
x1 = 0.004181	998.28	996.696	1540.7	–
x1 = 0.004462	998.349	996.755	1542.4	–
x1 = 0.004601	998.382	996.78	1543.2	–
x1 = 0.004981	998.469	996.85	1545.2	–
x1 = 0.005198	998.52	996.89	1546.2	–
x1 = 0.005607	998.619	996.962	1548.2	–
x1 = 0.005782	998.649	996.986	1549	–
